For one data set, the system named is HT-22 cells. Briefly: CCK8 cell viability assay, rotenone toxicity. The class given is cell-based, mouse. The note with it: Rot 2.5 μM and JP1 25, 50, 100 μM, 24 and 48 hours, dose-dependent. The method, then:
(§1) The example is to evaluate the protective effects of JP1 on the viability of mouse hippocampal neuronal cells HT-22 and human […] cells (SH-SYSY) induced by Rotenone (Rot) (CCK8 assay).
(§2) 1) Cell culture and treatment: The human neuroblastoma cell line SH-SYSY and the mouse hippocampal neuron cell line HT-22 were cultured in DMEM medium containing 100 µg/mL streptomycin, 100 U/mL penicillin, and 10% fetal bovine serum at 37° C. in a 5% CO2 environment. The cells were treated with Rotenone (2.5 μM) and JWA targeting peptide JP1 (0, 25, 50, 100 μM) for 24 and 48 hours, respectively. Model cells were tested for cell viability using CCK8 assay, expression levels of inflammasome 3 (NLRP3) and apoptosis related proteins (PARP1, Cleaved caspase1, 3, 9) using Western Blot, and mitochondrial membrane potential (JC1) and intracellular reactive oxygen species (ROS) levels using immunofluorescence staining.
(§3) Cells were inoculated in a 96-well plate at a density of 8000 cells/well for adherence for 24 hours. The culture medium was discarded and the cells were incubated for 24 and 48 hours with different concentrations of the drug. […] The absorbance value was read by an enzyme immunoassay detector at 450 nm. The cell viability (3 parallel samples in each group, and repeat 3 times) was calculated.

For data set [1] the following is noted: background statement; cited from earlier work.
The subject of a further data set is SH-SYSY cells. Briefly: CCK8 cell viability assay, rotenone toxicity. The format is cell-based, human. The note with it: Rot 2.5 μM and JP1 25, 50, 100 μM, 24 and 48 hours, dose-dependent. The method, then: as §1, §2, §3

Where a SMILES comes first, the peptide text is derived from it. [ ]: non-standard residue; d: D form. pS = N[C@@H](COP(=O)(O)O)C(=O)O

As to `N=C(N)NCCC[C@H](NC(=O)[C@H](Cc1ccccc1)NC(=O)[C@H](CCCNC(=N)N)NC(=O)[C@H](CC(=O)O)NC(=O)[C@H](COP(=O)(O)O)NC(=O)CNC(=O)[C@@H]1CCCN1C(=O)[C@@H](N)Cc1ccccc1)C(=O)NCC(=O)N[C@@H](CC(=O)O)C(=O)O` [JP1] (H-FPG[pS]DRFRGD-OH), the “cell viability, protection against cytotoxicity of Rot” value with HT-22 cells and in the data set on SH-SYSY cells was “significant protective effect” in each case. Further, the “crossing the blood-brain barrier” value in data set [1] is on record as “can cross the blood-brain barrier”.
